Where “and” joins values, the source holds several entries; their conditions need not be identical. Equal entries are not always repeated. Where two headings read alike, the source gives them in different places.
Test system: DosRST regulon
Type: cell-based
Settings: for Counts per million (CPM) WT_HC103A: replicates 1, 2

SMILES: O=C(Nc1cccc(O)c1)c1cccc(NC(=O)c2cccs2)c1 [HC103A, N-[3-[(3 hydroxyphenyl)carbamoyl]phenyl]thiophene-2-carboxamide]
- genes downregulated by compound (total) (40 μM, 6 days, >2-fold, p<0.05): 90 genes
- downregulation of tgs1 gene (transcriptional profiling) (CDC1551, 40 μM, 6 days): ~180 fold
- WT DMSO/WT HC103A fold change (gene MT36S5 Rv3551): 0.4042
- log2 Fold change (gene MT36S5 Rv3551): −1.307
- WT DMSO/WT HC103A fold change (gene MT0086 Rv0079): 0.2341
- log2 Fold change (gene MT0086 Rv0079): −2.095
- WT DMSO/WT HC103A fold change (gene MT0087 Rv0080): 0.2783
- log2 Fold change (gene MT0087 Rv0080): −1.845
- WT DMSO/WT HC103A fold change (gene MT0207 Rv0197): 3.65
- log2 Fold change (gene MT0207 Rv0197): 1.868
- WT DMSO/WT HC103A fold change (gene MT0337 Rv0322 udgA): 2.459
- log2 Fold change (gene MT0337 Rv0322 udgA): 1.298
- WT DMSO/WT HC103A fold change (gene MT0468 Rv0452): 2.465
- log2 Fold change (gene MT0468 Rv0452): 1.301
- WT DMSO/WT HC103A fold change (gene MT0491 Rv0474): 2.323
- log2 Fold change (gene MT0491 Rv0474): 1.216
- WT DMSO/WT HC103A fold change (gene MT0585 Rv0559c): 5.989
- log2 Fold change (gene MT0585 Rv0559c): 2.582
- WT DMSO/WT HC103A fold change (gene MT0586 Rv0560c): 282
- log2 Fold change (gene MT0586 Rv0560c): 8.139
- WT DMSO/WT HC103A fold change (gene MT0595 Rv0569): 0.1236
- log2 Fold change (gene MT0595 Rv0569): −3.016
- WT DMSO/WT HC103A fold change (gene MT0596 Rv0570 nrdZ): 0.02807
- log2 Fold change (gene MT0596 Rv0570 nrdZ): −5.155
- Counts per million (CPM) WT_HC103A (gene MT0596 Rv0570 nrdZ): 73.81 CPM and 59.09 CPM
- WT DMSO/WT HC103A fold change (gene MT0597 Rv0571c): 0.1705
- log2 Fold change (gene MT0597 Rv0571c): −2.552
- Counts per million (CPM) WT_HC103A (gene MT0597 Rv0571c): 71.16 CPM and 45.13 CPM
- WT DMSO/WT HC103A fold change (gene MT0598): 0.1036
- log2 Fold change (gene MT0598): −3.27
- Counts per million (CPM) WT_HC103A (gene MT0598): 38.26 CPM and 19.74 CPM
- WT DMSO/WT HC103A fold change (gene MT0599 Rv0572c): 0.05128
- log2 Fold change (gene MT0599 Rv0572c): −4.028
- Counts per million (CPM) WT_HC103A (gene MT0599 Rv0572c): 49.68 CPM and 34.61 CPM
- WT DMSO/WT HC103A fold change (gene MT0600): 0.02301
- log2 Fold change (gene MT0600): −5.442
- Counts per million (CPM) WT_HC103A (gene MT0600): 44.59 CPM and 9.221 CPM
- WT DMSO/WT HC103A fold change (gene MT0601 Rv0573c): 0.1124
- log2 Fold change (gene MT0601 Rv0573c): −3.153
- Counts per million (CPM) WT_HC103A (gene MT0601 Rv0573c): 11.49 CPM and 9.546 CPM
- WT DMSO/WT HC103A fold change (gene MT0602 Rv0574c): 0.05787
- log2 Fold change (gene MT0602 Rv0574c): −4.111
- Counts per million (CPM) WT_HC103A (gene MT0602 Rv0574c): 26.39 CPM and 16.69 CPM
- WT DMSO/WT HC103A fold change (gene MT0808 Rv0784): 4.409
- log2 Fold change (gene MT0808 Rv0784): 2.141
- WT DMSO/WT HC103A fold change (gene MT0846 Rv0824c desA1): 0.3753
- log2 Fold change (gene MT0846 Rv0824c desA1): −1.414
- Counts per million (CPM) WT_HC103A (gene MT0846 Rv0824c desA1): 2,581.69 CPM and 3,416.39 CPM
- WT DMSO/WT HC103A fold change (gene MT0910 Rv0887c): 2.543
- log2 Fold change (gene MT0910 Rv0887c): 1.346
- WT DMSO/WT HC103A fold change (gene MT1095 Rv1065): 0.3758
- log2 Fold change (gene MT1095 Rv1065): −1.412
- Counts per million (CPM) WT_HC103A (gene MT1095 Rv1065): 198.5 CPM and 168.6 CPM
- WT DMSO/WT HC103A fold change (gene MT1126 Rv1094 desA2): 0.3586
- log2 Fold change (gene MT1126 Rv1094 desA2): −1.44
- Counts per million (CPM) WT_HC103A (gene MT1126 Rv1094 desA2): 2,249.03 CPM and 2,771.69 CPM
- WT DMSO/WT HC103A fold change (gene MT1294 Rv1255c): 3.371
- log2 Fold change (gene MT1294 Rv1255c): 1.753
- WT DMSO/WT HC103A fold change (gene MT1322 Rv1284): 0.3386
- log2 Fold change (gene MT1322 Rv1284): −1.562
- Counts per million (CPM) WT_HC103A (gene MT1322 Rv1284): 223.7 CPM and 205.3 CPM
- WT DMSO/WT HC103A fold change (gene MT1608 Rv1557 mmpL6): 8.81
- log2 Fold change (gene MT1608 Rv1557 mmpL6): 3.139
- WT DMSO/WT HC103A fold change (gene MT1692 Rv1654 argB): 0.2745
- log2 Fold change (gene MT1692 Rv1654 argB): −1.865
- Counts per million (CPM) WT_HC103A (gene MT1692 Rv1654 argB): 176.3 CPM and 60.13 CPM
- WT DMSO/WT HC103A fold change (gene MT1693 Rv1655 argD): 0.2592
- log2 Fold change (gene MT1693 Rv1655 argD): −1.948
- Counts per million (CPM) WT_HC103A (gene MT1693 Rv1655 argD): 135.1 CPM and 51.69 CPM
- WT DMSO/WT HC103A fold change (gene MT1694 Rv1656 argF): 0.214
- log2 Fold change (gene MT1694 Rv1656 argF): −2.224
- Counts per million (CPM) WT_HC103A (gene MT1694 Rv1656 argF): 115.2 CPM and 42.01 CPM
- WT DMSO/WT HC103A fold change (gene MT1774 Rv1733c): 0.01521
- log2 Fold change (gene MT1774 Rv1733c): −6.039
- Counts per million (CPM) WT_HC103A (gene MT1774 Rv1733c): 40.51 CPM and 8.961 CPM
- WT DMSO/WT HC103A fold change (gene MT1775): 0.1012
- log2 Fold change (gene MT1775): −3.305
- Counts per million (CPM) WT_HC103A (gene MT1775): 101.9 CPM and 24.16 CPM
- WT DMSO/WT HC103A fold change (gene MT1776 Rv1735c): 0.2125
- log2 Fold change (gene MT1776 Rv1735c): −2.234
- Counts per million (CPM) WT_HC103A (gene MT1776 Rv1735c): 4.991 CPM and 2.922 CPM
- WT DMSO/WT HC103A fold change (gene MT1777): 0.02322
- log2 Fold change (gene MT1777): −5.428
- Counts per million (CPM) WT_HC103A (gene MT1777): 5.142 CPM and 2.013 CPM
- WT DMSO/WT HC103A fold change (gene MT1778 Rv1736c narX): 0.0157
- log2 Fold change (gene MT1778 Rv1736c narX): −5.993
- Counts per million (CPM) WT_HC103A (gene MT1778 Rv1736c narX): 122.3 CPM and 26.17 CPM
- WT DMSO/WT HC103A fold change (gene MT1779 Rv1737c narK2): 0.01434
- log2 Fold change (gene MT1779 Rv1737c narK2): −6.124
- Counts per million (CPM) WT_HC103A (gene MT1779 Rv1737c narK2): 36.9 CPM and 14.55 CPM
- WT DMSO/WT HC103A fold change (gene MT1780 Rv1738): 0.01855
- log2 Fold change (gene MT1780 Rv1738): −5.752
- Counts per million (CPM) WT_HC103A (gene MT1780 Rv1738): 133.5 CPM and 33.12 CPM
- WT DMSO/WT HC103A fold change (gene MT1823 (Rv1773c)): 0.36
- log2 Fold change (gene MT1823 (Rv1773c)): −1.434
- Counts per million (CPM) WT_HC103A (gene MT1823 Rv1773c): 222.7 CPM and 163.7 CPM
- WT DMSO/WT HC103A fold change (gene MT1851 Rv1813c): 0.01771
- log2 Fold change (gene MT1851 Rv1813c): −5.819
- Counts per million (CPM) WT_HC103A (gene MT1851 Rv1813c): 58.53 CPM and 24.74 CPM
- WT DMSO/WT HC103A fold change (gene MT1860 Rv1812c): 0.3778
- log2 Fold change (gene MT1860 Rv1812c): −1.404
- Counts per million (CPM) WT_HC103A (gene MT1860 Rv1812c): 78.19 CPM and 78.7 CPM
- WT DMSO/WT HC103A fold change (gene MT1882 (Rv1834)): 0.3504
- log2 Fold change (gene MT1882 (Rv1834)): −1.472
- Counts per million (CPM) WT_HC103A (gene MT1882 Rv1834): 28.36 CPM and 29.22 CPM
- WT DMSO/WT HC103A fold change (gene MT1986 (Rv1936)): 0.2546
- log2 Fold change (gene MT1986 (Rv1936)): −1.918
- Counts per million (CPM) WT_HC103A (gene MT1986 Rv1936): 72.29 CPM and 31.56 CPM
- WT DMSO/WT HC103A fold change (gene MT1987 (Rv1937)): 0.2435
- log2 Fold change (gene MT1987 (Rv1937)): −2.038
- Counts per million (CPM) WT_HC103A (gene MT1987 Rv1937): 83.71 CPM and 36.75 CPM
- WT DMSO/WT HC103A fold change (gene MT1988 Rv1938 ephB): 0.2508
- log2 Fold change (gene MT1988 Rv1938 ephB): −1.995
- Counts per million (CPM) WT_HC103A (gene MT1988 Rv1938 ephB): 32.14 CPM and 15.97 CPM
- WT DMSO/WT HC103A fold change (gene MT1989 (Rv1939)): 0.2883
- log2 Fold change (gene MT1989 (Rv1939)): −1.794
- Counts per million (CPM) WT_HC103A (gene MT1989 Rv1939): 16.33 CPM and 8.831 CPM
- WT DMSO/WT HC103A fold change (gene MT2016 (Rv1964)): 0.2736
- log2 Fold change (gene MT2016 (Rv1964)): −1.87
- Counts per million (CPM) WT_HC103A (gene MT2016 Rv1964): 93.32 CPM and 56.95 CPM
- WT DMSO/WT HC103A fold change (gene MT2017): 0.1841
- log2 Fold change (gene MT2017): −2.441
- Counts per million (CPM) WT_HC103A (gene MT2017): 44.46 CPM and 29.87 CPM
- WT DMSO/WT HC103A fold change (gene MT2018 (Rv1966 mce3)): 0.194
- log2 Fold change (gene MT2018 (Rv1966 mce3)): −2.366
- Counts per million (CPM) WT_HC103A (gene MT2018 Rv1966 mce3): 54.83 CPM and 33.77 CPM

Source: patent US11717508B2, “Compounds, compositions, and methods for inhibiting bacterial growth” (priority 2016, dated 2023)
